# Experimental data as given in publication PMC6440464 (PeerJ, 2019).
# Values joined by “and” are separate entries in the source; they are usually repeats but may differ in a detail not shown here. Equal entries are not always repeated.
# Experiment: Pharmacokinetics study after separate oral administration in rats (HPLC-MS of plasma)
# Format: in vivo, Sprague-Dawley rats
# Settings: for Plasma concentrations: individual rats NO. 1-5; for AUC(0-t) / Cmax / Tmax / t1/2z: labelled substance = analyte, individual rats No1-No5
# Procedure: A total of 15 SPF Sprague-Dawley rats (SD, male, 190–210 g) were provided by Sino-British Sippr/BK Lab Animal Company Ltd. (Shanghai, China). The rats were kept in standard conditions (22–26 °C; 40–60% relative humidity; 12 h light/dark cycle). Throughout the rearing period, the animals had access to food and water ad libitum. Animal experiments were conducted in accordance with the standard ethical guidelines of the Laboratory Animal Management Committee of Jiangsu Province (SYXK (SU) 2016-0011).
# Following 1 week of adaptation, the rats were fasted for about 12 h before dosing, with free access to water. […] After administration of the first dose, blood samples were taken from the retro-orbital vein at 0, 5, 15, 30, 60, 90, 120, 180, 240, 360, 480, and 1,440 min and collected in heparinized tubes. The samples were centrifuged at 3,500 rpm for 10 min at 4 °C and the plasma was stored at −80 °C until analysis.
# An Agilent 1,200 series HPLC system (Agilent Technologies, Waldbronn, Germany) equipped with a quaternary pump on-line degasser, auto-sampler and column oven, and an SL G1946D quadruple mass spectrometer (Agilent Technologies, Santa Clara, CA, USA) equipped with an electrospray ionization (ESI) source, were used for separation and detection. Data were acquired and analyzed using Agilent ChemStation Software Version A.01.00 (Agilent Technologies, Santa Clara, CA, USA).
# The separation was carried out with an Amethyst C18-H column (150 × 4.6 mm, 5 μm, Sepax Technologies, Newark, DE, USA) with a guard column SB-C18 (10 × 4.6 mm, 5 μm, Phenomenex Technologies, Torrance, USA) at a constant temperature of 25 °C.
# The mass spectra were acquired using ESI interfaced to a single quadrupole mass spectrometer. The ionization conditions were as follows: drying gas (N2) flow rate of 11 L/min, drying gas temperature of 350 °C, nebulizing gas (N2) pressure of 35 psi, capillary voltage of 3,500 V, quad temperature of 100 °C, and fragment voltage of 110 V. A series of m/z were monitored using a timed program according to the retention times and characteristic ions for the corresponding HPLC-MS peak obtained by scanning from m/z 100–1,000 in the standard sample.
# Briefly, an aliquot of plasma sample (100 μL) was spiked with 5% formic acid (10 μL) in centrifuge tube. Subsequently, hydrochloric acid (2 mol/L, 10 μL) and IS solution (960.00 ng/mL, 20 μL) were added. Then ethyl acetate/n-butyl alcohol (1:1 v/v; 1,000 μL) was used to extract the components. The samples were then homogenized by vortex mixing and centrifuged for 10 min at 14,000 rpm. After centrifugation, 800 μL of supernatant was transferred to another centrifuge tube and the sample was evaporated to dryness. The residues were dissolved in 100 μL of methanol and centrifuged for 10 min at 12,000 rpm. 50 μL of the supernatant was transferred to the vial and an aliquot of 5 μL was injected into the HPLC-MS system for analysis.
# DAS 2.0 (Chinese Pharmacological Association, Shanghai, China) was used to calculate the pharmacokinetic parameters using the non-compartment model, including the area under curve (AUC), mean residence time (MRT), half-life ( t1/2z), clearance rate (CL), maximum plasma concentration (Cmax), and time (Tmax). All results are expressed as mean ± standard deviation (SD). One way analysis of variance followed by […] was used for comparison of different groups using Graph pad prism 5 software. A p-value of <0.05 was considered statistically significant.
# [1] = IQ group (oral IQ 50 mg/kg), rat plasma
# [2] = QG group (oral QG 50 mg/kg), rat plasma
# [3] = Qr group (oral Qr 50 mg/kg), rat plasma
compound,measurement,setting,value
"O=c1c(O)c(-c2ccc(O)c(O)c2)oc2cc(O)cc(O)c12 [Qr, Quercetin]",Plasma concentrations,"IQ group (oral IQ 50 mg/kg), 5 min",97 ng/mL and 72.1 ng/mL
same,Plasma concentrations,"IQ group (oral IQ 50 mg/kg), 120 min",1913.8 ng/mL and 3969.5 ng/mL and 3663.4 ng/mL and 3592.6 ng/mL and 4482.8 ng/mL
same,Plasma concentrations,"IQ group (oral IQ 50 mg/kg), 180 min",2424.7 ng/mL and 3384.3 ng/mL and 2628.6 ng/mL and 529.3 ng/mL and 3851.1 ng/mL
same,Plasma concentrations,"IQ group (oral IQ 50 mg/kg), 240 min",1940 ng/mL and 3381.2 ng/mL and 2408.4 ng/mL and 1320.4 ng/mL and 1250.9 ng/mL
same,Plasma concentrations,"IQ group (oral IQ 50 mg/kg), 360 min",1313.4 ng/mL and 2984 ng/mL and 4511 ng/mL and 1879.1 ng/mL and 1080.1 ng/mL
same,Plasma concentrations,"IQ group (oral IQ 50 mg/kg), 480 min",1825.8 ng/mL and 2829.2 ng/mL and 642.1 ng/mL and 975.9 ng/mL and 503.3 ng/mL
same,Plasma concentrations,"IQ group (oral IQ 50 mg/kg), 1440 min",90.3 ng/mL and 1333.2 ng/mL and 1663.4 ng/mL and 210.4 ng/mL and 61.1 ng/mL
same,AUC(0-t),[1],2661.03 mg·min/L and 1721.03 mg·min/L and 1261.04 mg·min/L and 1844.61 mg·min/L and 3575.83 mg·min/L
same,Cmax,[1],8460 ng/mL and 10370.3 ng/mL and 4575 ng/mL and 4452 ng/mL and 5147 ng/mL
same,Tmax,[1],30 min and 60 min
same,t1/2z,[1],2.34307 h and 7.45293 h and 4.46562 h and 15.5735 h
same,Detection in rat plasma,IQ group: oral IQ 50 mg/kg,measured
same,Plasma concentrations,"QG group (oral QG 50 mg/kg), 5 min",0 ng/mL
same,Plasma concentrations,"QG group (oral QG 50 mg/kg), 120 min",0 ng/mL and 178 ng/mL and 350 ng/mL and 264.3 ng/mL and 91.3 ng/mL
same,Plasma concentrations,"QG group (oral QG 50 mg/kg), 180 min",1405.7 ng/mL and 1522.4 ng/mL and 4112 ng/mL and 56.4 ng/mL and 1551 ng/mL
same,Plasma concentrations,"QG group (oral QG 50 mg/kg), 240 min",2385.9 ng/mL and 4434.6 ng/mL and 6808.5 ng/mL and 1445.9 ng/mL and 1915.9 ng/mL
same,Plasma concentrations,"QG group (oral QG 50 mg/kg), 360 min",997.6 ng/mL and 4127.1 ng/mL and 4268 ng/mL and 6817.8 ng/mL and 3639.1 ng/mL
same,Plasma concentrations,"QG group (oral QG 50 mg/kg), 480 min",880.9 ng/mL and 5383.5 ng/mL and 6785.2 ng/mL and 4353.5 ng/mL and 4449.8 ng/mL
same,Plasma concentrations,"QG group (oral QG 50 mg/kg), 1440 min",254.4 ng/mL and 878.4 ng/mL and 519.9 ng/mL and 325 ng/mL and 366.2 ng/mL
same,AUC(0-t),[2],1100.93 mg·min/L and 4341.94 mg·min/L and 5313.01 mg·min/L and 3484.77 mg·min/L and 3287.74 mg·min/L
same,Cmax,[2],2385.9 ng/mL and 5384 ng/mL and 6808 ng/mL and 6818 ng/mL and 4450 ng/mL
same,Tmax,[2],480 min (2×) and 240 min and 360 min
same,t1/2z,[2],9.05187 h and 8.35598 h and 5.58873 h and 4.1639 h and 3.28813 h
same,Plasma concentrations,"Qr group (oral Qr 50 mg/kg), 5 min",640.7 ng/mL and 69.5 ng/mL and 57.3 ng/mL and 802.4 ng/mL and 171.1 ng/mL
same,Plasma concentrations,"Qr group (oral Qr 50 mg/kg), 120 min",4624.9 ng/mL and 4603.8 ng/mL and 5199.9 ng/mL and 1294.5 ng/mL and 3649 ng/mL
same,Plasma concentrations,"Qr group (oral Qr 50 mg/kg), 180 min",3310.6 ng/mL and 4410.7 ng/mL and 6178.3 ng/mL and 1059.8 ng/mL and 3541.5 ng/mL
same,Plasma concentrations,"Qr group (oral Qr 50 mg/kg), 240 min",1969.1 ng/mL and 3087.5 ng/mL and 1750.4 ng/mL and 2254.1 ng/mL
same,Plasma concentrations,"Qr group (oral Qr 50 mg/kg), 360 min",3069.3 ng/mL and 1565.6 ng/mL and 2529.6 ng/mL and 1025.9 ng/mL and 1740.7 ng/mL
same,Plasma concentrations,"Qr group (oral Qr 50 mg/kg), 480 min",1701.5 ng/mL and 2705.9 ng/mL and 3008.7 ng/mL and 1156.8 ng/mL and 828.8 ng/mL
same,Plasma concentrations,"Qr group (oral Qr 50 mg/kg), 1440 min",416.7 ng/mL and 431.9 ng/mL and 601.2 ng/mL and 220.4 ng/mL and 329.6 ng/mL
same,AUC(0-t),[3],2664.65 mg·min/L and 3200.67 mg·min/L and 3831.17 mg·min/L and 1368.81 mg·min/L and 1887.27 mg·min/L
same,Cmax,[3],7855 ng/mL and 9701 ng/mL and 9916 ng/mL and 3579 ng/mL and 6280 ng/mL
same,Tmax,[3],90 min and 30 min
same,t1/2z,[3],6.20775 h and 8.55312 h and 6.68888 h and 7.31962 h
same,Detection in rat plasma,Qr group: oral Qr 50 mg/kg,could be detected in rat plasma
same,CL,"Qr group: oral Qr 50 mg/kg, rat plasma, mean ± SD, n = 5",20 ± 8 mL/min/kg
